In patent publication US20160130226A1, “SPIRO-SUBSTITUTED OXINDOLE DERIVATIVES HAVING AMPK ACTIVITY” (BOEHRINGER INGELHEIM INTERNATIONAL GMBH, priority 2013, published 2016):

Assays:
[1] = biological target: T1, AMPK beta 2 (Mus musculus, UniProt Q6PAM0+Q8BRK8); test: in-cell-ELISA for phospho-ACC: activation of AMPK, beta 2 (HepG2 cells / C2C12 myotubes); assay type: cell-based; conditions: 2 h, 1 μM, percentage activation over vehicle control, read-out: Percentage activation of beta 2 at given concentration
T1 construct: fully differentiated myotubes (C2C12 cells) grown in 96 well plate; endogenous in cells; host or cells: C2C12 myotubes (assignment to the beta 2 column inferred)
Method: (§1) Activation of AMPK by various compounds were measured using in-cell-ELISA for phospho-ACC (Acetyl-CoA carboxylase 1) in HepG2 cells (liver) and fully differentiated myotubes (C2C12 cells) grown in 96 well plate. Cells were treated with 1 μM, 3 μM or 10 μM of the molecule (Example) for 2 h in serum free DMEM media. After methanol fixation, cells were blocked with BSA followed by addition of anti-phospho ACC antibody (Cell Signaling) and HRP conjugated secondary antibody. Absorbance values taken at 450 nm were normalized with total DNA (Hoechest stain). Results were expressed as percentage activation over vehicle control.
(§2) Percentage activation at compound (Example) concentration of 1, 3 or 10 μM for compounds according to the invention are shown in the following table. The number of the compound corresponds to the number of the Example (Ex) in the experimental section.

[2] = biological target: T2, AMPK beta 1 (Homo sapiens, UniProt Q13131+Q9Y478); test: in-cell-ELISA for phospho-ACC: activation of AMPK, beta 1 (HepG2 cells / C2C12 myotubes); assay type: cell-based; conditions: 2 h, percentage activation over vehicle control; for activation at 1 µM / activation at 10 µM / activation at 3 µM: read-out: Percentage activation of beta 1 at given concentration
T2 construct: in-cell-ELISA for phospho-ACC (Acetyl-CoA carboxylase 1) in HepG2 cells (liver); endogenous in cells; host or cells: HepG2 (assignment to the beta 1 column inferred)
Method: as §1, §2

T2 sequence (Q9Y478 2-270 limits assumed): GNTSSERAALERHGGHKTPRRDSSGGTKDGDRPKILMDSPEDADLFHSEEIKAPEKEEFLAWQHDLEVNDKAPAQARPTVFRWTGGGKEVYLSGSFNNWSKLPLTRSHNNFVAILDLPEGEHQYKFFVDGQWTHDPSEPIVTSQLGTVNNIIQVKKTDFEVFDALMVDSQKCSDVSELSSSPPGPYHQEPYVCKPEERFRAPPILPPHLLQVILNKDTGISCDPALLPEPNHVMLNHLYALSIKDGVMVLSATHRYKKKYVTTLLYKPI
T2 sequence (Q13131 whole entry): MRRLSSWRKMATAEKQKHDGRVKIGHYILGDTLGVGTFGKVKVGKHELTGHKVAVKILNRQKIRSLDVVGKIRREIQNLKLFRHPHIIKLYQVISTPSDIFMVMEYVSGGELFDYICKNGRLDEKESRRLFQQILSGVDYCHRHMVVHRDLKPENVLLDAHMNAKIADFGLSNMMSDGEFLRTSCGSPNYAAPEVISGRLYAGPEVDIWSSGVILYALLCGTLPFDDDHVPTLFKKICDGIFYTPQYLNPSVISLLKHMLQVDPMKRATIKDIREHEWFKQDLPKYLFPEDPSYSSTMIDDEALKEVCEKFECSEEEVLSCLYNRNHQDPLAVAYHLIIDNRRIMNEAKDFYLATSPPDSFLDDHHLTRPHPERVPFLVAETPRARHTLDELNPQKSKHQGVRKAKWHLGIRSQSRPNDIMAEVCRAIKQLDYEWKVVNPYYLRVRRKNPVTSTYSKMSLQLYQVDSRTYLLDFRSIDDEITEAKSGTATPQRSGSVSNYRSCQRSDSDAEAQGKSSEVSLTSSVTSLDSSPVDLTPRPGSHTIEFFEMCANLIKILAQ
T2 sequence (P54619 whole entry partner): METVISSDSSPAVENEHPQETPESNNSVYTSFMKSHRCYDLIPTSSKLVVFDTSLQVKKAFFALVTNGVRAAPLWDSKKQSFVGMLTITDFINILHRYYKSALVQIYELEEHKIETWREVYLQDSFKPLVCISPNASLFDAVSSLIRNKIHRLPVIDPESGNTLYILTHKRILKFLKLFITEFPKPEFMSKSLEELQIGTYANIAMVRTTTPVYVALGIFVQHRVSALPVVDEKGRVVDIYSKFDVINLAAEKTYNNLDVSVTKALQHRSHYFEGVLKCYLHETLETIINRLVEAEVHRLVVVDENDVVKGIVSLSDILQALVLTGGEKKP
T1 sequence (Q6PAM0 whole entry): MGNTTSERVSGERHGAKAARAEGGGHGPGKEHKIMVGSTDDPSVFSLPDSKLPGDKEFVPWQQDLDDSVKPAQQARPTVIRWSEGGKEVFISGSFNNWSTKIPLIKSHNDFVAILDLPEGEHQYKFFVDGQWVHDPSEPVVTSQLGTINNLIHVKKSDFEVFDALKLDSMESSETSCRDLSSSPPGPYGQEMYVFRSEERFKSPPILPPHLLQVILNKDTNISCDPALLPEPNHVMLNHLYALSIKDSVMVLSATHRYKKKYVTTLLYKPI
T1 sequence (Q8BRK8 whole entry): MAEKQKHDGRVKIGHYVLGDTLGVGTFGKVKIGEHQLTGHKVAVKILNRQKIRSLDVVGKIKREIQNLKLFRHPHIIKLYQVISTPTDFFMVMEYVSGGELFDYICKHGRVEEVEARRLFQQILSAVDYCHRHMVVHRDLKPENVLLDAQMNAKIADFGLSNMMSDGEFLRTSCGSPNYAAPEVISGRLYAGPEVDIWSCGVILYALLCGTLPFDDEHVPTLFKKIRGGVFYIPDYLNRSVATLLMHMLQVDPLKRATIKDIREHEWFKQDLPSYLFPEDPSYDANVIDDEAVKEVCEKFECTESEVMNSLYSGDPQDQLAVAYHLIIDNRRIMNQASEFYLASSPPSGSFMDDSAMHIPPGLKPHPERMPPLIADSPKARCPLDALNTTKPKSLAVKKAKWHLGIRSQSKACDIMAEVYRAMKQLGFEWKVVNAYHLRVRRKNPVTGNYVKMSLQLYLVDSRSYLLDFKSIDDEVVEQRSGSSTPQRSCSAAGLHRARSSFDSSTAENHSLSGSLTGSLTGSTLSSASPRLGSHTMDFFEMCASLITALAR
T1 sequence (O54950 whole entry partner): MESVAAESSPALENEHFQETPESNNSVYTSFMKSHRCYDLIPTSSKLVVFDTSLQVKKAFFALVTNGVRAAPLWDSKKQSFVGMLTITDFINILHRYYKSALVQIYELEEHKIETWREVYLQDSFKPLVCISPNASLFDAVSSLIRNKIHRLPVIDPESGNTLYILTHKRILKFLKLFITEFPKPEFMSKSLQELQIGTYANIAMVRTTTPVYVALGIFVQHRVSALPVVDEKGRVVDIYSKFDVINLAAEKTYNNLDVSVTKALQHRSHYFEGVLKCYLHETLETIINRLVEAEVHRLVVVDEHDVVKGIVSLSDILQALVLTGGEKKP

Structure (SMILES) | activation at 10 µM ([2]; 10 μM) | activation at 3 µM [2] | also measured
Cc1ccc(C2CC23C(=O)Nc2cc(F)c(-c4ccc(-c5ccccc5O)cc4)cc23)cc1CO (stereo not drawn) [Example 190] |  |  | activation at 1 µM [1]: 94%; activation at 1 µM ([2]; 1 μM): 121%
Cc1ccc(C2CC23C(=O)Nc2cc(Cl)c(-c4ccc(O)cc4)cc23)cc1C(=O)O (stereo not drawn) [Example 29] | 40% |  | 
CC(C)c1ccc(C2CC23C(=O)Nc2cc(Cl)c(-c4ccc(-c5ccccc5O)cn4)cc23)cc1C(=O)O (stereo not drawn) [Example 24] | 85% |  | 
O=C(O)Cc1cccc(C2CC23C(=O)Nc2cc(F)c(-c4ccc(-c5ccc(-n6ccnn6)cc5)cc4)cc23)c1 (stereo not drawn) [Example 174] |  |  | activation at 1 µM ([2]; 1 μM): 87%
CC(C)c1ccc(C2CC23C(=O)Nc2cc(Cl)c(-c4ccc(-c5ncccc5O)cc4)cc23)cc1C(=O)O (stereo not drawn) [Example 23] |  | 63% | 
Cc1ccc(C2CC23C(=O)Nc2cc(Cl)c(-c4ccc5[nH]ccc5c4)cc23)cc1C(=O)O (stereo not drawn) [Example 94] | 137% |  | 
O=C(O)Cc1cccc(C2CC23C(=O)Nc2cc(F)c(-c4ccc(-c5ccccc5O)cc4)cc23)c1 (stereo not drawn) [Example 31] |  | 68% | 
Cc1ccc(C2CC23C(=O)Nc2cc(Cl)c(-c4ccc(-c5ccncc5O)cc4)cc23)cc1C(=O)O (stereo not drawn) [Example 21] |  | 93% | 
Cc1ccc(C2CC23C(=O)Nc2cc(Cl)c(-c4ccc(C5(CO)CC5)cc4)cc23)cc1C(=O)O (stereo not drawn) [Example 45] |  |  | Percentage activation of beta 1 at given concentration ([2]; 10 μM): 80% at 10 μM
Cc1ccc(C2CC23C(=O)Nc2cc(Cl)c(-c4ccc(-c5ccccn5)cc4)cc23)cc1C(=O)O (stereo not drawn) [Example 78] | 66% |  | 
Cc1ccc(C2CC23C(=O)Nc2cc(Cl)c(-c4ccc(-c5ccc(-n6cncn6)cc5)cc4)cc23)cc1C(=O)O (stereo not drawn) [Example 116] |  | 100% | 
Cc1ccc(C2CC23C(=O)Nc2cc(Cl)c(-c4ccc(C5(CO)CC5)cc4)cc23)cc1C(=O)O (stereo not drawn) [Example 44] |  |  | Percentage activation of beta 1 at given concentration ([2]; 10 μM): 11% at 10 μM
COc1ccc(C2CC23C(=O)Nc2cc(Cl)c(-c4ccc(-c5ccccc5)cn4)cc23)cc1C(=O)O (stereo not drawn) [Example 77] | 17% |  | 
Cc1ccc(C2CC23C(=O)N(C)c2cc(Cl)c(-c4ccc(-c5ncccc5O)cc4)cc23)cc1C(=O)O (stereo not drawn) [Example 36] | 39% |  | 
O=C(O)Cc1cccc(C2CC23C(=O)Nc2cc(Cl)c(-c4ccc(-c5cccnc5)cc4)cc23)c1 (stereo not drawn) [Example 65] | 89% |  | 
Cc1ccc(C2CC23C(=O)Nc2cc(Cl)c(-c4ccc(Cc5ccccc5O)cc4)cc23)cc1C(=O)O (stereo not drawn) [Example 34] |  | 47% | 
Cc1ccc(C2CC23C(=O)Nc2cc(Cl)c(-c4ccc(N5CCOCC5)c(F)c4)cc23)cc1C(=O)O (stereo not drawn) [Example 71] | 40% |  | 
Cc1ccc(C2CC23C(=O)Nc2cc(Cl)c(-c4ccc(-c5ccncc5)cc4)nc23)cc1C(=O)O (stereo not drawn) [Example 83] | 92% |  | 
Cc1ccc(C2CC23C(=O)N(C(C)C)c2cc(Cl)c(-c4ccc(-c5ccncc5)cc4)cc23)cc1C(=O)O (stereo not drawn) [Example 104] |  | 56% | 
Cc1ccc(C2CC23C(=O)Nc2cc(Cl)c(-c4ccc(-c5cccnc5)cc4)cc23)cc1C(=O)O (stereo not drawn) [Example 62] | 86% |  | 
Cc1ccc(C2CC23C(=O)Nc2cc(Cl)c(-c4ccc(-c5ccc(-c6nnn[nH]6)cc5)cc4)cc23)cc1C(=O)O (stereo not drawn) [Example 136] |  | 19% | 
CC(C)(C(=O)O)c1ccc(C2CC23C(=O)Nc2cc(Cl)c(-c4ccc(-c5ccc(-n6cncn6)cc5)cc4)cc23)cc1 (stereo not drawn) [Example 137] |  | 48% | 
Cc1ccc(C2CC23C(=O)Nc2cc(Cl)c(-c4ccc5c(ccn5CCO)c4)cc23)cc1C(=O)O (stereo not drawn) [Example 47] | 72% |  | 
CC(C)c1ccc(C2CC23C(=O)N(C)c2cc(Cl)c(-c4ccc(-c5ncccc5O)cc4)cc23)cc1C(=O)O (stereo not drawn) [Example 37] | 112% |  | 
CCN1C(=O)C2(CC2c2ccc(OC)c(C(=O)O)c2)c2cc(-c3ccc(-c4ccncc4)cc3)c(Cl)cc21 (stereo not drawn) [Example 106] |  | 99% | 
CC(C)c1ccc(C2CC23C(=O)Nc2cc(Cl)c(-c4ccc(N5CCC[C@H]5CO)cc4)cc23)cc1C(=O)O (stereo partly drawn) [Example 51] |  | 34% | 
Cc1ccc(C2CC23C(=O)Nc2cc(Cl)c(-c4ccc(-c5ccc(-n6cncn6)cc5)cc4)cc23)cc1CO (stereo not drawn) [Example 184] |  | 36% | 
CC(C)(C(=O)O)c1ccc(C2CC23C(=O)Nc2cc(F)c(-c4ccc(-c5ccc(-n6cncn6)cc5)cc4)cc23)cc1 (stereo not drawn) [Example 161] |  |  | Percentage activation of beta 1 at given concentration ([2]; 1 μM): 115% at 1 μM
Cc1ccc(C2CC23C(=O)Nc2cc(Cl)c(-c4ccc(-c5ccncc5)c(F)c4)cc23)cc1C(=O)O (stereo not drawn) [Example 67] |  | 80% | 
